Laboratory results from US12448368B2, “Indole compounds as androgen receptor modulators” (NIDO BIOSCIENCES, INC., priority 2020, dated 2025).

Target: T1, androgen receptor (AR) (Homo sapiens, UniProt P10275, T878A)
T1 construct: LNCaP cells expressing ARR2PB-FireflyLuc and CMV-RenillaLuc; endogenous in cells; host or cells: LNCaP cells carrying ARR2PB-FireflyLuc and CMV-RenillaLuc reporters
T1 sequence (P10275 1-920 T878A): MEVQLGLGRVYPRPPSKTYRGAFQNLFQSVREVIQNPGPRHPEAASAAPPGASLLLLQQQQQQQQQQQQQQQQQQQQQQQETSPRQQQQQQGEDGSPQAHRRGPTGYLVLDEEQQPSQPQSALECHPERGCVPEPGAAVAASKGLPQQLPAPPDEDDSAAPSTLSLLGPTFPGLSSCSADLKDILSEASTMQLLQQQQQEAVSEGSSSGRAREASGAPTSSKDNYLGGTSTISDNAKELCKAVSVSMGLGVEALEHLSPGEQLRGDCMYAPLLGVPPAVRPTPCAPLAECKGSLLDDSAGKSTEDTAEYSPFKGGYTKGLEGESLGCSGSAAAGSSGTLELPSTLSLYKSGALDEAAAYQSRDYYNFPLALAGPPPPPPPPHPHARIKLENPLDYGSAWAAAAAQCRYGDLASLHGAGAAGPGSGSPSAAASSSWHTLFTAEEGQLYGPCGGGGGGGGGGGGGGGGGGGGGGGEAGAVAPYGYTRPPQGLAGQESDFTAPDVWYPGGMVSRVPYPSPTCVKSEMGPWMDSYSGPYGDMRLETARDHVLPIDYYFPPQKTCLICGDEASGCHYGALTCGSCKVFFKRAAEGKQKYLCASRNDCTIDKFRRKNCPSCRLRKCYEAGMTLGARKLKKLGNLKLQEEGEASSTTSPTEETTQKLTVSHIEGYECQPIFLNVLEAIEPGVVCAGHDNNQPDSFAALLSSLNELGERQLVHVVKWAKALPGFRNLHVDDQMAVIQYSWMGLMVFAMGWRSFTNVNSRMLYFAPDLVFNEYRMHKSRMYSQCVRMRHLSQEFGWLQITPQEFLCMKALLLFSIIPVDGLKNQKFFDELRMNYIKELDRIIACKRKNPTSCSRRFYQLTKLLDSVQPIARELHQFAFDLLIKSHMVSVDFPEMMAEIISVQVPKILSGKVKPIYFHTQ
Assay: AR reporter assay in LNCaP cells expressing ARR2PB-FireflyLuc and CMV-RenillaLuc, antagonist mode (% remaining activity, IC50)
Type: cell-based
Settings: 48 h at 37° C., class symbols A-D, read-out: IC50
Outline: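 LNCaP cells carrying ARR2PB-firefly and CMV-Renilla luciferase reporters were treated 48 h at 37 °C with compound plus 0.5 nM DHT. Signals were normalised between 0.5 nM DHT alone and 10 uM enzalutamide + DHT to give % remaining activity, and IC50 was obtained by non-linear regression.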

IC50: > 10 µM
SMILES: Cc1nc(-c2c[nH]c3c(Cl)nccc23)cnc1OCC(C)(C)O [Compound 343]
